Results taken from the supplement of paper PMC13380429.

Tests used:
Conditions in all cases: 72 h
HepG2 [1] = test: drug sensitivity score (DSS) for viability; higher = more toxic; extreme values may be limits of the assay
Caco-2 [2] = test: as above
Calu-3 [3] = test: as above
U2OS [4] = test: as above
Vero E6 [5] = test: as above
HepG2 [6] = test: cell viability relative to DMSO; higher = less toxic
Caco-2 [7] = test: as above
Calu-3 [8] = test: as above
U2OS [9] = test: as above
Vero E6 [10] = test: as above
HepG2 [11] = test: relative viability EC50 (midpoint between 100% and the lowest measured viability); higher = less toxic
Caco-2 [12] = test: as above
Calu-3 [13] = test: as above
U2OS [14] = test: as above
Vero E6 [15] = test: as above

Row | Compound | drug sensitivity score (HepG2 [1]) | drug sensitivity score (Caco-2 [2]) | drug sensitivity score (Calu-3 [3]) | drug sensitivity score (U2OS [4]) | drug sensitivity score (Vero E6 [5]) | cell viability (HepG2 [6]; 1 nM) [%] | cell viability (HepG2 [6]; 10 nM) [%] | cell viability (HepG2 [6]; 100 nM) [%] | cell viability (HepG2 [6]; 1000 nM) [%] | cell viability (HepG2 [6]; 10000 nM) [%] | cell viability (Caco-2 [7]; 1 nM) [%] | cell viability (Caco-2 [7]; 10 nM) [%] | cell viability (Caco-2 [7]; 100 nM) [%] | cell viability (Caco-2 [7]; 1000 nM) [%] | cell viability (Caco-2 [7]; 10000 nM) [%] | cell viability (Calu-3 [8]; 1 nM) [%] | cell viability (Calu-3 [8]; 10 nM) [%] | cell viability (Calu-3 [8]; 100 nM) [%] | cell viability (Calu-3 [8]; 1000 nM) [%] | cell viability (Calu-3 [8]; 10000 nM) [%] | cell viability (U2OS [9]; 1 nM) [%] | cell viability (U2OS [9]; 10 nM) [%] | cell viability (U2OS [9]; 100 nM) [%] | cell viability (U2OS [9]; 1000 nM) [%] | cell viability (U2OS [9]; 10000 nM) [%] | cell viability (Vero E6 [10]; 1 nM) [%] | cell viability (Vero E6 [10]; 10 nM) [%] | cell viability (Vero E6 [10]; 100 nM) [%] | cell viability (Vero E6 [10]; 1000 nM) [%] | cell viability (Vero E6 [10]; 10000 nM) [%] | relative viability EC50 (HepG2 [11]) [µM] | relative viability EC50 (Caco-2 [12]) [µM] | relative viability EC50 (Calu-3 [13]) [µM] | relative viability EC50 (U2OS [14]) [µM] | relative viability EC50 (Vero E6 [15]) [µM]
1 | Nc1nc(O)c2ncn(CCC(CO)CO)c2n1 [penciclovir] | 0 | 0 | 0 | 0 | 0 | 89.8 | 94.3 | 101 | 94.6 | 102 | 98.7 | 109 | 102 | 103 | 102 | 102 | 90.8 | 92 | 94.1 | 99.5 | 99.3 | 95.9 | 93.9 | 101 | 104 | 100 | 94.3 | 90 | 95.1 | 102 | > 10 | > 10 | > 10 | > 10 | > 10
2 | O=C(CCc1ccc(O)cc1)c1c(O)cc(O)cc1O [phloretin] | 0 | 0 | 0 | 0 | 0 | 107 | 98.3 | 94.2 | 99.1 | 99.4 | 92.1 | 101 | 97.5 | 101 | 98.6 | 104 | 93.2 | 98.7 | 98 | 91.3 | 95.8 | 100 | 103 | 96.8 | 101 | 105 | 102 | 99.9 | 103 | 95.1 | > 10 | > 10 | > 10 | > 10 | > 10
3 | CC(C)[C@H](CO)Nc1nc(Nc2cccc(Cl)c2)c2ncn(C(C)C)c2n1 [purvalanol-A] | 0.4 | 0.4 | 0 | 0.2 | 1.4 | 90.8 | 96.8 | 100 | 94.8 | 87.2 | 91.6 | 103 | 93.4 | 94.2 | 83.1 | 102 | 109 | 96.5 | 102 | 91.4 | 97.4 | 105 | 95.5 | 99 | 86.4 | 100 | 97.4 | 93.7 | 95.5 | 77.3 | > 10 | > 10 | > 10 | > 10 | > 10
4 | O=C(NC1CCNCC1)[C@@H]1CC[C@@H]2CN1C(=O)N2OS(=O)(=O)O [relebactam] | 0 | 0.3 | 0 | 0 | 0 | 93.9 | 109 | 94.1 | 108 | 95.3 | 92.6 | 108 | 89.4 | 94.6 | 90 | 110 | 103 | 99 | 107 | 98.2 | 102 | 107 | 103 | 101 | 100 | 99.1 | 97.2 | 97.9 | 102 | 104 | > 10 | > 10 | > 10 | > 10 | > 10
5 | O=C(NCCCN1CCOCC1)c1cnn2c(-c3ccccc3)cc(-c3ccccc3)nc12 [reversan] | 0 | 1.8 | 2 | 0.2 | 0.3 | 91.7 | 95.6 | 92.6 | 102 | 93.3 | 104 | 97 | 92.2 | 88.8 | 75.6 | 105 | 101 | 107 | 91.8 | 75.4 | 103 | 103 | 97.5 | 99.5 | 85.8 | 97.8 | 100 | 103 | 103 | 82.6 | > 10 | > 10 | > 10 | > 10 | > 10
6 | CO[C@H]1/C=C/O[C@@]2(C)Oc3c(C)c(O)c4c(O)c(c5c(nc6cc(C)ccn65)c4c3C2=O)NC(=O)/C(C)=C\C=C\[C@H](C)[C@H](O)[C@@H](C)[C@@H](O)[C@@H](C)[C@H](OC(C)=O)[C@@H]1C [rifaximin] | 0 | 0 | 0 | 0 | 0 | 110 | 95.3 | 102 | 104 | 106 | 137 | 112 | 87 | 98.2 | 96.4 | 94.7 | 95 | 89 | 101 | 94.6 | 96.7 | 99.3 | 94.6 | 93.3 | 96.4 | 106 | 93.6 | 108 | 106 | 117 | > 10 | > 10 | > 10 | > 10 | > 10
7 | CN(CCOc1ccc(CC2SC(=O)NC2=O)cc1)c1ccccn1 (stereo not given) [rosiglitazone] | 0 | 0.9 | 0 | 0 | 2.8 | 94.9 | 97.1 | 93.5 | 96.5 | 89.5 | 99.9 | 93 | 93.9 | 81.9 | 90.7 | 105 | 96.2 | 94.6 | 102 | 108 | 96.7 | 97.2 | 98.1 | 98.5 | 100 | 96.3 | 95.2 | 88.3 | 82.1 | 81.3 | > 10 | > 10 | > 10 | > 10 | > 10
8 | NCC(CS(=O)(=O)O)c1ccc(Cl)cc1 (stereo not given) [saclofen] | 0 | 0.6 | 0 | 0 | 0 | 107 | 107 | 105 | 105 | 98 | 100 | 101 | 91 | 88.7 | 95.5 | 96.2 | 91.9 | 94.8 | 86.9 | 105 | 93.6 | 99.7 | 95.3 | 96.9 | 104 | 106 | 98.6 | 103 | 101 | 103 | > 10 | > 10 | > 10 | > 10 | > 10
9 | COC(=O)[C@@H]1C[C@H](OC(C)=O)C(=O)[C@H]2[C@@]1(C)CC[C@H]1C(=O)O[C@H](c3ccoc3)C[C@]21C [salvinorin-A] | 0 | 0 | 0 | 0 | 0 | 88.2 | 106 | 105 | 98.2 | 101 | 112 | 112 | 101 | 101 | 97.2 | 110 | 91.3 | 97.5 | 107 | 109 | 97.9 | 101 | 93.1 | 97 | 97.3 | 98.5 | 108 | 106 | 91.8 | 98.4 | > 10 | > 10 | > 10 | > 10 | > 10
10 | C[n+]1cc2c3c(ccc2c2ccc4cc5c(cc4c21)OCO5)OCO3 [sanguinarium-chloride] | 10.3 | 8.3 | 6.9 | 6.8 | 9.2 | 93 | 103 | 96.7 | 64.3 | 0 | 85.8 | 103 | 73.1 | 82.4 | 2.2 | 101 | 96.4 | 83.9 | 91.1 | 0.9 | 96.6 | 98.5 | 97 | 92.1 | 0.2 | 109 | 99.8 | 105 | 75.9 | 0.1 | 1.29 | 1.82 | 2.42 | 2.52 | 1.58
11 | CCO[C@@H](Cc1ccc(OCCn2c(C)ccc2-c2ccc(SC)cc2)cc1)C(=O)O [saroglitazar] | 0 | 0 | 0 | 0 | 1.2 | 97.3 | 95.5 | 88.4 | 97.1 | 104 | 92 | 92.8 | 122 | 93.7 | 100 | 93.3 | 80.3 | 97.6 | 89.9 | 105 | 102 | 89.1 | 101 | 97.5 | 93.9 | 99.5 | 96.3 | 88.1 | 87.8 | 95.2 | > 10 | > 10 | > 10 | > 10 | > 10
